Measured values from publication PMC7372189 (Frontiers in Pharmacology, 2020).
Like-named read-outs stand apart in the source and are kept apart here.

Assays:
TRPV1 channel = biological target: T1, TRPV1 channel (Rattus norvegicus, UniProt O35433); test: Two-electrode voltage clamp (TEVC) in Xenopus oocytes expressing TRPV1 channels; assay type: cell-based; details: for maximal effect (Ix/Icapsaicin): Imax relative to current in saturating capsaicin
T1 construct: expressed in transfected cells; host or cells: Xenopus laevis oocytes injected with in vitro transcribed TRPV1 cRNA
T1 sequence (O35433 whole entry): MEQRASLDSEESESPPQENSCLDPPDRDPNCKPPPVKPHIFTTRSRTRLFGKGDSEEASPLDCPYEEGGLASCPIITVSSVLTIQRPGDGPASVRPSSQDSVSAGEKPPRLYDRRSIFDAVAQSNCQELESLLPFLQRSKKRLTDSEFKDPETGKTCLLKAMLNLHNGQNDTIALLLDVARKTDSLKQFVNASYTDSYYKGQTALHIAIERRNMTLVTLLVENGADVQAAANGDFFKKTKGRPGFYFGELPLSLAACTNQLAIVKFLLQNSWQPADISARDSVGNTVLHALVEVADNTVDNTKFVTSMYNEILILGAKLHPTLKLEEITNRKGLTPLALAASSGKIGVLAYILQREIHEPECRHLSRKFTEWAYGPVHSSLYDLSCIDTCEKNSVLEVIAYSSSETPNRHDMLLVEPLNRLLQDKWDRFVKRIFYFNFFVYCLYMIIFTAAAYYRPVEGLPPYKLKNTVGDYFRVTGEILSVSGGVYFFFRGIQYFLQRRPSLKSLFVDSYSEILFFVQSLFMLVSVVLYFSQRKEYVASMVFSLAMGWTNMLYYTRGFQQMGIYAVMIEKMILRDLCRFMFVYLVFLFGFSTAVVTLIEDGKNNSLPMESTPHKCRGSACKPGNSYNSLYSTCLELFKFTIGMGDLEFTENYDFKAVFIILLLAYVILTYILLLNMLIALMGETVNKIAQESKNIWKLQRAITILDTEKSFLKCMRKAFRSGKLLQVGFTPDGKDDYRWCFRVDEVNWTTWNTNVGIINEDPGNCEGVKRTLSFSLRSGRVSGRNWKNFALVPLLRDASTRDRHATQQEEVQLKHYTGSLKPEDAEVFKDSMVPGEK

[1] = test system: tactile allodynia induced by intra-plantar carrageenan; test: Carrageenan model of inflammatory pain, tactile allodynia measured with von Frey filaments after topical application; assay type: in vivo, Sprague–Dawley rats; details: for Effect duration / Time of maximal analgesia / Time to first effect (first significant analgesic effect): after topical application; for Concentration at maximal analgesia / ED50 of maximal effect / Maximal percentage of analgesia attained: topical in cream; for ED50 of maximal effect: extrapolated from linear fit of %MPE at time of maximal analgesia; for Maximal percentage of analgesia attained: relative to cream (0%) and saline (100%) controls
Protocol: Male Sprague–Dawley rats (approximately 200–300 g body weight) were used. Food and water were supplied ad libitum and the animals were kept in a 12 h light–dark cycle in their home cages throughout the study. All procedures were in accordance with the U.S. National Institutes of Health guidelines and were approved by the bioethical Committee of the Universidad Andres Bello, Acta 11/2016.
2% λ-Carrageenan (Santa Cruz Biotechnology) was administered subcutaneously to induce tactile allodynia according to previous studies ([Yoshimura and Yonehara, 2001]; [Fehrenbacher et al., 2012]). Capsaicin was obtained from Sigma. Compounds 1, 2, and 3 were obtained from the National Cancer Institute. […] Novo base moisturizing cream (Charles Lasserre) was used as vehicle for all tested compounds including capsaicin and was used alone as vehicle control. The different concentrations used can be found in Table 3.
Rats were randomly assigned into the following groups for all compounds: EC50, 10-fold EC50, 100-fold EC50, 1,000-fold EC50, a control group treated with cream only and a control group for 2% λ-Carrageenan in which saline was injected instead of λ-Carrageenan.
The λ-Carrageenan model for inflammatory pain was used to induce mechanical allodynia lasting for less than 24 h, as reported elsewhere ([Yoshimura and Yonehara, 2001]; [Fehrenbacher et al., 2012]). In short, animals were injected with 100 µl of 2% λ-Carrageenan diluted in saline, or saline alone as vehicle control, into the left hind paw. One hour later, capsaicin or one of the three compounds dissolved in cream was administered on the plantar surface until fully absorbed using a cotton swab. Then the rat was placed in the test chamber and acclimated for 5 min.
The day before the experiments, tactile thresholds were measured in all animals to attain a baseline and to ensure normal sensitivity to tactile stimuli. On the day of the experiment, the cream that contained the compounds was applied only once, 5 min before the evaluation began, and the effects of each compound was measured over time, once per hour, for eight consecutive hours. Von Frey filaments were used to measure plantar mechanical sensitivity and inflammatory allodynia. Briefly, the rats were placed into the arena with a mesh floor and after the 5-min habituation, were tested using von Frey filaments. The following von Frey filaments were applied against the plantar surface: 52.2 g (512 mN), 26.1 g (256 mN), 13.0 g (128 mN), 6.52 g (64 mN), 3.26 g (32 mN). To measure tactile response, the up-down method was used ([Dixon, 1980]), with slight modifications: the starting filament (13.0 g) was applied perpendicularly to the plantar surface of the hind paw until it buckled for 3 s or until the rat withdrew its foot. If the rat responded to the filament, the procedure was repeated with the smaller filament (6.52 g) and then repeated sequentially until the smallest filament that elicits a response was identified. […] To confirm that the identified filament was the smallest that could elicit a response, the filament was changed to the next smaller filament with no response and then increased again to the filament that produced a response. The responses (X) and lack of responses (0) were recorded to obtain the tabular values from [Dixon (1980)], corresponding to:
Data from von Frey filaments was obtained as a dose–response curve for each compound over the course of 8 h. All groups were tested for normality and a two-way ANOVA with Bonferroni post hoc test was used to analyze differences. Differences were considered significant when p < 0.05 and averages are shown ± standard error of the mean (SE).
The paw withdrawal threshold (PWT) for each time point was calculated by using the following equation proposed by [Dixon, 1980]: […]

[2] = higher concentrations than 10xEC50

Row | SMILES | maximal effect (Ix/Icapsaicin) (TRPV1 channel) | EC50 (TRPV1 channel; read-out: EC50) [nM] | Analgesic effect relative to vehicle, significance of tactile thresholds (von Frey) ([1]; Time 1 h, x1000 EC50) | Analgesic effect relative to vehicle, significance of tactile thresholds (von Frey) ([1]; Time 2 h, x100 EC50) | Analgesic effect relative to vehicle, significance of tactile thresholds (von Frey) ([1]; Time 2 h, x1000 EC50) | Analgesic effect relative to vehicle, significance of tactile thresholds (von Frey) ([1]; Time 3 h, x1000 EC50) | Analgesic effect relative to vehicle, significance of tactile thresholds (von Frey) ([1]; Time 4 h, x100 EC50) | Analgesic effect relative to vehicle, significance of tactile thresholds (von Frey) ([1]; Time 4 h, x1000 EC50) | Analgesic effect relative to vehicle, significance of tactile thresholds (von Frey) ([1]; Time 7 h, x100 EC50) | Analgesic effect relative to vehicle, significance of tactile thresholds (von Frey) ([1]; Time 7 h, x1000 EC50) | Analgesic effect relative to vehicle, significance of tactile thresholds (von Frey) ([1]; Time 8 h, x100 EC50) | Analgesic effect relative to vehicle, significance of tactile thresholds (von Frey) ([1]; Time 8 h, x1000 EC50) | Analgesic effect relative to vehicle, significance of tactile thresholds (von Frey) ([1]; Time 9 h, x100 EC50) | Analgesic effect relative to vehicle, significance of tactile thresholds (von Frey) ([1]; Time 9 h, x1000 EC50) | Effect duration [1] [h] | Time of maximal analgesia [1] [h] | Concentration at maximal analgesia [1] [µM] | ED50 of maximal effect [1] [nM] | Maximal percentage of analgesia attained [1] [%] | Time to first effect (first significant analgesic effect) [1] | further results
1 | COc1cc(C2C(C(=O)OC3CCCC3)=C(C)NC3=C2C(=O)CC(c2ccc(OC)c(OC)c2)C3)ccc1O (stereo not drawn) [Compound 1] | 0.8 | 53 ± 6 | ** (**p < 0.01) | ** (**p < 0.01) | *** (***p < 0.001) | **** (****p < 0.0001) | * (*p < 0.05) | *** (***p < 0.001) | *** (***p < 0.001) | *** (***p < 0.001) | ** (**p < 0.01) | *** (***p < 0.001) | ** (**p < 0.01) | ** (**p < 0.01) | 8 | 3 | 53 | 37700 | 83 | – | Duration of significant analgesic effect ([1]; 10xEC50): 8 h; Time of first significant analgesic effect compared to vehicle ([1]; 10xEC50): 1 h; Analgesic effect relative to vehicle, significance of tactile thresholds (von Frey) ([1]; Time 1 h, x10 EC50): * (*p < 0.05); Analgesic effect relative to vehicle, significance of tactile thresholds (von Frey) ([1]; Time 1 h, x100 EC50): * (*p < 0.05); Analgesic effect relative to vehicle, significance of tactile thresholds (von Frey) ([1]; Time 2 h, x10 EC50): **** (****p < 0.0001); Analgesic effect relative to vehicle, significance of tactile thresholds (von Frey) ([1]; Time 3 h, x10 EC50): **** (****p < 0.0001); Analgesic effect relative to vehicle, significance of tactile thresholds (von Frey) ([1]; Time 3 h, x100 EC50): ** (**p < 0.01); Analgesic effect relative to vehicle, significance of tactile thresholds (von Frey) ([1]; Time 4 h, x10 EC50): *** (***p < 0.001); Analgesic effect relative to vehicle, significance of tactile thresholds (von Frey) ([1]; Time 5 h, x10 EC50): **** (****p < 0.0001); Analgesic effect relative to vehicle, significance of tactile thresholds (von Frey) ([1]; Time 5 h, x100 EC50): ** (**p < 0.01); Analgesic effect relative to vehicle, significance of tactile thresholds (von Frey) ([1]; Time 5 h, x1000 EC50): *** (***p < 0.001); Analgesic effect relative to vehicle, significance of tactile thresholds (von Frey) ([1]; Time 6 h, x10 EC50): ** (**p < 0.01); Analgesic effect relative to vehicle, significance of tactile thresholds (von Frey) ([1]; Time 6 h, x100 EC50): ** (**p < 0.01); Analgesic effect relative to vehicle, significance of tactile thresholds (von Frey) ([1]; Time 6 h, x1000 EC50): *** (***p < 0.001); Analgesic effect relative to vehicle, significance of tactile thresholds (von Frey) ([1]; Time 7 h, x10 EC50): ** (**p < 0.01); Analgesic effect relative to vehicle, significance of tactile thresholds (von Frey) ([1]; Time 8 h, x10 EC50): * (*p < 0.05); Duration of significant analgesic effect [1, 2]: ≥ 9 h; Time of first significant analgesic effect compared to vehicle [1, 2]: 1 h
2 | C=C(C)[C@]12C[C@@H](C)[C@@]34O[C@](Cc5ccccc5)(O[C@@H]1[C@@H]3C=C(COC(=O)Cc1ccc(O)c(OC)c1)C[C@]1(O)C(=O)C(C)=C[C@@H]41)O2 [Resiniferatoxin, reference compound] | – | – | – | – | – | – | – | – | – | – | – | – | – | – | – | – | – | – | – | – | EC50 (TRPV1 channel): 0.7 nM
3 | COc1cc(CNC(=O)CCCC/C=C/C(C)C)ccc1O [Capsaicin, reference compound] | 1 | – | – | – | – | – | – | – | – | – | – | – | – | – | 2 | 4 | 44 | 86900 | 86 | Hour 3 h | Time to first effect (first significant analgesic effect) ([1]; listed as capsaicin): 3 h
4 | Cc1cccc(NC(=O)C2CCCN(C(=O)OCc3ccccc3)C2)c1 (stereo not drawn) [Compound 2] | 0.73 | 53 ± 4.3 | *** (***p < 0.001) | * (*p < 0.05) | ** (**p < 0.01) | *** (***p < 0.001) | * (*p < 0.05) | * (*p < 0.05) | ** (**p < 0.01) | ** (**p < 0.01) | – | ** (**p < 0.01) | – | – | 3 | 3 | 53 | 6800 | 100 | – | Time of first significant analgesic effect compared to vehicle ([1]; 100xEC50): 2 h; Duration of significant analgesic effect ([1]; higher concentrations than 100xEC50): 3 h
5 | COc1ccc(C(=O)NNC(=O)CSc2nnc(-c3ccc(C)cc3)n2C)cc1 [Compound 3] | 0.89 | 92 ± 10 | – | – | – | – | – | – | – | * (*p < 0.05) | * (*p < 0.05) | * (*p < 0.05) | * (*p < 0.05) | * (*p < 0.05) | 2 | 7 | 92 | 139300 | 75 | Hour 7 h | Time to first effect (first significant analgesic effect) ([1]; listed as compound 3): 7 h
